The values below come from patent US8153385B2, “Target protein and target gene in drug designing and screening method” (Reverse Proteomics Research Institute Co., Ltd., priority 2004, dated 2012).

Each structure is given as a SMILES string.

For the assay, the target named is T1, FLJ13397 clone-derived protein (CARP) (Homo sapiens, UniProt Q9H8M7).
T1 construct: A human full-length cDNA clone was expressed as a protein with an N-terminal His tag; His tag (pDEST17 Gateway vector) (N); made in house; host or cells: Escherichia coli BL21star(DE3)pLysS
T1 sequence (Q9H8M7 1-445): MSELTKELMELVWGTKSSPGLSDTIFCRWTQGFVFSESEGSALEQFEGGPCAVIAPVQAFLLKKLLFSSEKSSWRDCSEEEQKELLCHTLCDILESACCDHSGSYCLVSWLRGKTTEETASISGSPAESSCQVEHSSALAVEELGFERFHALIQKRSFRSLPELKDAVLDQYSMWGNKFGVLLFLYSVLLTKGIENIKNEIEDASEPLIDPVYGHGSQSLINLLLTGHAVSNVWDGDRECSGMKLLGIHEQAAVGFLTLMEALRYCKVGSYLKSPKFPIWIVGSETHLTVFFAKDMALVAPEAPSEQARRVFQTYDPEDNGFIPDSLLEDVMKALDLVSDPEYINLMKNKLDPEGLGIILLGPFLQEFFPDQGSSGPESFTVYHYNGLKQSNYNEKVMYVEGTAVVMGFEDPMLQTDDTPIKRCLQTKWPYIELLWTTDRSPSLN
Put plainly: SEC/MS (size exclusion chromatography / mass analysis) interaction analysis between FLJ13397 clone-derived protein and compounds. It counts as binding. How it is done: BP-reaction was performed on human full-length cDNA clone and the cloning vector Gateway pDONR201 by the PCR cloning method using the Invitrogen Gateway system to yield an entry clone. LR-reaction was performed on this entry clone with the destination vector pDEST17 (Gateway System) and LR Clonase at 25° C. for 60 minutes to yield an expression plasmid. Escherichia coli competent cell BL21star(DE3)pLysS were transformed with this expression plasmid, a clone incorporating the expression vector was selected, and a frozen stock was prepared. The transformant was inoculated into LB medium and precultured, after which it was transferred into SB medium and cultured to induce the expression by IPTG, and the cells were stored frozen.
A human full-length cDNA clone was expressed as a protein with an N-terminal His tag. This clone was purified using BioRobot 8000 (Qiagen) or ACTA Crystal (Amersham). […] In the purification with ACTA Crystal, affinity purification using a HisTrap HP column was followed by gel filtration purification using the Gel Filtration Column HiLoad 16/60 or a 10/30 Superdex 75 prep grade column. The purified fraction was used for interaction analysis after being subjected to SDS-PAGE to verify the estimated molecular weight and purity.
To analyze the interactions between commonly used drugs and proteins expressed from human full-length cDNA clones while keeping both the proteins and the compounds in non-modified, non-immobilized state, size exclusion chromatography (SEC) and mass analysis were used in combination (FIGS. 1 and 2). The specific procedures are shown below.
The compound-protein mixture prepared in step 1 was subjected to chromatography using an SEC column, the compound and the protein were separated by SEC, and the bound compound or compound that interacted with the protein in the protein fraction was analyzed using a mass analyzer.
Protein concentrations were measured using BCA Protein Assay (PIERCE), in consideration of the purity calculated by SDS-PAGE.
Mass analysis was performed using LCQ DECA XP (Thermoelectron) or Q-TOFmicro (Micromass), equipped with an ESI probe. The LC pump used was Agilent 1100 (Yokogawa Analytical Systems), and the autosampler used was HTC-PAL (CTC Analytics) equipped with a cooling stacker.
In the SEC method using a 384-well spin column, Unifilter 100 (Whatman), packed with 10 μL (dry volume) of Bio-Gel P6 (BIO-RAD) and swollen with milliQ water, was used as the SEC column. […] The SEC spin column was mounted on an acetonitrile-aliquoted 384-well U-bottom plate and centrifuged; the SEC spin column filtrate, which is a protein fraction, was retrieved in 50% acetonitrile. The protein precipitate produced by the acetonitrile was removed via centrifugation and filtration for protein removal; the resulting filtrate was concentrated by centrifugation and re-dissolved in 10 μL of 50% methanol to obtain a mass analysis sample. The mobile phase supplied to the mass analyzer was 0.1% formic acid/50% methanol solution in the positive ion mode, and 0.1% ammonia/50% methanol solution in the negative ion mode; these mobile phases were used at a flow rate of 40 μL/min. 2-μL of mass analysis samples were injected using an autosampler at 2-Minute intervals; the mass spectral intensity of the compound was measured to obtain the spectral intensity of the pharmaceutical compound contained in the SEC spin column filtrate (protein fraction eluted from SEC).
For orientation: Size exclusion chromatography separates by hydrodynamic size, large species first.

Where [1] appears, read: compound 1 μM, protein 0 μM (protein-free reference).
Where [2] appears, read: compound 1 μM, protein 23.75 μM.
Where [3] appears, read: compound 10 μM, protein 0 μM (protein-free reference).
The mark [4] stands for this setting: compound 10 μM, protein 23.75 μM.
[5] abbreviates: compound 10 μM, protein 47.5 μM.
[6] abbreviates: compound 100 μM, protein 0 μM (protein-free reference).
[7] abbreviates: compound 100 μM, protein 23.75 μM.
The mark [8] stands for this setting: compound 100 μM, protein 47.5 μM.
[9] abbreviates: compound 250 μM, protein 0 μM (protein-free reference).
The mark [10] stands for this setting: compound 250 μM, protein 23.75 μM.
The mark [11] stands for this setting: compound 250 μM, protein 47.5 μM.

Turning to `CCCSc1ccc2nc(NC(=O)OC)[nH]c2c1` [Albendazole], the “spectrum intensity of the extracted mass range (compound in SEC spin column filtrate)” value (“spectrum intensity” for short) reads like this: under setting [1], 99130; under setting [2], 290428; (compound 1 μM, protein 47.5 μM) 247973; under setting [3], 25263; under setting [4], 1117765; under setting [5], 603904. In addition, the “spectrum intensity” value came to 221630 under setting [6]; 6713076 under setting [7]; 3946588 under setting [8]; 151791 under setting [9]; 18185332 under setting [10]; 55508710 under setting [11].

`CCC[S+]([O-])c1ccc2[nH]c(NC(=O)OC)nc2c1` (stereo not shown) [Albendazole Sulfoxide]: the “spectrum intensity” value was 1514429 under setting [1]; 1280086 under setting [2]; 1361540 (compound 1 μM, protein 47.5 μM); 11869270 under setting [3]; 13449119 under setting [4]; 14241157 under setting [5]. The “spectrum intensity” value is recorded as 125971079 under setting [6]; 208777846 under setting [7]; 241218904 under setting [8]; 460535649 under setting [9]; 532900104 under setting [10]; 372564422 under setting [11].

Regarding `CC(C)(C)c1ccc(C(O)CCCN2CCC(C(O)(c3ccccc3)c3ccccc3)CC2)cc1` (stereo not shown) [Terfenadine], the “spectrum intensity” value under setting [1] is reported as 1817431; the “spectrum intensity” value under setting [2] was determined as 1889743; the “spectrum intensity” value (compound 1 μM, protein 47.5 μM) was determined as 1281933; the “spectrum intensity” value under setting [3] was 2641416; the “spectrum intensity” value under setting [4] is 9434699; the “spectrum intensity” value under setting [5] is given as 8393491. In addition, the “spectrum intensity” value runs as follows: under setting [6], 241452949; under setting [7], 175843248; under setting [8], 549040113; under setting [9], 644365611; under setting [10], 1389061661; under setting [11], 1700398168. Moreover, the “interaction with the FLJ13397-expressed protein (judgement)” value (judged from increase of spectrum intensity with doses of compound and protein) is “concentration-dependent interaction”.

With `CCCS(=O)(=O)c1ccc2nc(NC(=O)OC)[nH]c2c1` [Albendazole Sulfone], the “spectrum intensity” value reads like this: under setting [1], 1342766; under setting [2], 1155288; (compound 1 μM, protein 47.5 μM) 761260; under setting [3], 5960539; under setting [4], 5481616; under setting [5], 5089101. The “spectrum intensity” value is listed as 94575228 under setting [6]; 149841728 under setting [7]; 131428354 under setting [8]; 66281031 under setting [9]; 280956724 under setting [10]; 328407687 under setting [11].

`OC(c1ccccc1)(c1ccccc1)C1CCNCC1` [α,α-Diphenyl-4-piperidinomethanol]: the “spectrum intensity” value worked out at 1354498 under setting [1]; 1217276 under setting [2]; 1961004 (compound 1 μM, protein 47.5 μM); 14109120 under setting [3]; 12131847 under setting [4]; 15743409 under setting [5]. The “spectrum intensity” value is listed as 106849236 under setting [6]; 219345185 under setting [7]; 287013305 under setting [8]; 400374746 under setting [9]; 620399620 under setting [10]; 1037919 under setting [11].

Consider `COC(=O)Nc1nc2ccc(S(=O)(=O)c3ccccc3)cc2[nH]1` [Fenbendazole Sulfone], for which the “spectrum intensity” value is, setting by setting: under setting [1], 4524987; under setting [2], 2681468; (compound 1 μM, protein 47.5 μM) 2967134; under setting [3], 9471873; under setting [4], 13569838; under setting [5], 12568548. Also, the “spectrum intensity” value runs as follows: under setting [6], 4055561; under setting [7], 63176239; under setting [8], 88590858; under setting [9], 5180253; under setting [10], 165761033; under setting [11], 286102392.
